Key:
[1] = target: T1, Lysine-specific demethylase 4D (Homo sapiens) (UniProt Q6B0I6); test: Inhibition of human KDM4D expressed in Escherichia coli BL21 (DE3) at 1 uM using biotinylated H3-derived peptide and 2-OG as substrate preincubated for 15 mins followed by substrate addition and measured after 1 hr by AlphaLISA assay; settings: time 75.0 min
T1 sequence (whole entry): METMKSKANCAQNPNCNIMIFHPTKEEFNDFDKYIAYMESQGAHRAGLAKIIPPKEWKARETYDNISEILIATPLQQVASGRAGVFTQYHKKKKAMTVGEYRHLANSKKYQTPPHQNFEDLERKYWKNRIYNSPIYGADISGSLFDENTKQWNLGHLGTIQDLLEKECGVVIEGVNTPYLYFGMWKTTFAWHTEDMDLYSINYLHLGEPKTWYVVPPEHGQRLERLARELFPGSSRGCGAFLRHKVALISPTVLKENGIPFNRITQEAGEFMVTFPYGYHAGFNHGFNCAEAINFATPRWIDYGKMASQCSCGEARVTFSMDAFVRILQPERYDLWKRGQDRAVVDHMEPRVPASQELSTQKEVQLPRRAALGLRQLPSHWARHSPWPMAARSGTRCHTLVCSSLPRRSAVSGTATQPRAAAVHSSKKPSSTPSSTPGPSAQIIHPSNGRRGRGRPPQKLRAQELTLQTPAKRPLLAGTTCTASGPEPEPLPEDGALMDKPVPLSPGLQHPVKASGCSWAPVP

[2] = target: T2, Lysine-specific demethylase 4D (Homo sapiens, UniProt Q6B0I6); test: Inhibition of human KDM4D expressed in Escherichia coli BL21 (DE3) using biotinylated H3-derived peptide and 2-OG as substrate preincubated for 15 mins followed by substrate addition and measured after 1 hr by AlphaLISA assay
T2 sequence (Q6B0I6 whole entry): T1 sequence (whole entry)

## COc1cccc(C(=O)N[C@@H]2CCN(C(c3ccncc3)c3cc4c(cc3O)OCO4)C2)c1 (stereo partly drawn)
[1]
  inhibition: 99.4%
[2]
  IC50: 546 nM

## CC(C)(C)OC(=O)N[C@@H]1CCN(C(c2cc3c(cc2O)OCO3)c2ccnc3ccccc23)C1 (stereo partly drawn)
[1]
  inhibition: 99.5%
[2]
  IC50: 100 nM

## O=C(N[C@@H]1CCN(C(c2ccncc2)c2cc3c(cc2O)OCO3)C1)C1CC1 (stereo partly drawn)
[1]
  inhibition: 99.8%
[2]
  IC50: 155 nM

## O=C(NC[C@@H]1CCN(C(c2ccncc2)c2cc3c(cc2O)OCO3)C1)C1CC1 (stereo partly drawn)
[1]
  inhibition: 93.6%
[2]
  IC50: 193 nM

## CC(C)(C)OC(=O)N[C@@H]1CCN(C(c2ccc(-c3ccccn3)cc2)c2cc3c(cc2O)OCO3)C1 (stereo partly drawn)
[1]
  inhibition: 99.8%
[2]
  IC50: 145 nM

## CC(C)(C)OC(=O)N[C@@H]1CCN(C(c2cccc(-n3ccnc3)c2)c2cc3c(cc2O)OCO3)C1 (stereo partly drawn)
[1]
  inhibition: 99.7%
[2]
  IC50: 109 nM

## O=C(N[C@@H]1CCN(C(c2ccncc2)c2cc3c(cc2O)OCO3)C1)c1ccccc1 (stereo partly drawn)
[1]
  inhibition: 99.9%
[2]
  IC50: 536 nM

## COC(=O)c1ccc(C(c2cc3c(cc2O)OCO3)N2CC[C@@H](NC(=O)OC(C)(C)C)C2)cc1 (stereo partly drawn)
[1]
  inhibition: 99.4%
[2]
  IC50: 445 nM

## COc1ccc(O)c(C(c2ccncc2)N2CC[C@@H](NC(=O)OC(C)(C)C)C2)c1 (stereo partly drawn)
[1]
  inhibition: -3.27%

## O=C(N[C@H]1CCN(C(c2ccncc2)c2cc3c(cc2O)OCO3)C1)C1CC1 (stereo partly drawn)
[1]
  inhibition: 96.6%
[2]
  IC50: 892 nM

## COC(=O)c1cccc(C(c2cc3c(cc2O)OCO3)N2CC[C@@H](NC(=O)OC(C)(C)C)C2)c1 (stereo partly drawn)
[1]
  inhibition: 98.3%
[2]
  IC50: 499 nM

## CC(C)(C)OC(=O)N[C@@H]1CCN(C(c2ccncc2)c2cc3c(cc2O)CCC3)C1 (stereo partly drawn)
[1]
  inhibition: -6.01%

## O=C(N[C@@H]1CCN(C(c2ccncc2)c2cc3c(cc2O)OCO3)C1)c1ccccc1Cl (stereo partly drawn)
[1]
  inhibition: 94.2%
[2]
  IC50: 187 nM

## CC(C)(C)OC(=O)N[C@@H]1CCN(C(c2cc3c(cc2O)OCO3)c2ccc(F)cc2F)C1 (stereo partly drawn)
[1]
  inhibition: 97.3%
[2]
  IC50: 173 nM

## CC(C)(C)OC(=O)N[C@@H]1CCN(C(c2cnccn2)c2cc3c(cc2O)OCO3)C1 (stereo partly drawn)
[1]
  inhibition: 99%
[2]
  IC50: 552 nM

## CC(C)(C)OC(=O)N[C@@H]1CCN(C(c2ccncc2)c2ccccc2O)C1 (stereo partly drawn)
[1]
  inhibition: 1.9%

## COc1cc(O)c(C(c2ccncc2)N2CC[C@@H](NC(=O)OC(C)(C)C)C2)cc1F (stereo partly drawn)
[1]
  inhibition: 12.9%

## CC(C)(C)OC(=O)N[C@@H]1CCN(C(c2ccc(F)cc2)c2cc3c(cc2O)OCO3)C1 (stereo partly drawn)
[1]
  inhibition: 98.2%
[2]
  IC50: 192 nM

## COc1cc(C#N)ccc1C(c1cc2c(cc1O)OCO2)N1CC[C@@H](NC(=O)OC(C)(C)C)C1 (stereo partly drawn)
[1]
  inhibition: 98.1%
[2]
  IC50: 368 nM

## CC(C)(C)OC(=O)N[C@@H]1CCN(C(c2ccncc2)c2cc3c(cc2O)OC(F)(F)O3)C1 (stereo partly drawn)
[1]
  inhibition: 0.88%

## CC(C)(C)NC(=S)N[C@@H]1CCN(C(c2ccncc2)c2cc3c(cc2O)OCO3)C1 (stereo partly drawn)
[1]
  inhibition: 96.4%
[2]
  IC50: 171 nM

## CC(C)(C)OC(=O)N[C@@H]1CCN(Cc2cc3c(cc2O)OCO3)C1
[1]
  inhibition: -4.8%

## O=C(N[C@@H]1CCN(C(c2ccncc2)c2cc3c(cc2O)OCO3)C1)c1ccccc1F (stereo partly drawn)
[1]
  inhibition: 96.6%
[2]
  IC50: 437 nM

## Cc1nccn1-c1ccc(C(c2cc3c(cc2O)OCO3)N2CC[C@@H](NC(=O)OC(C)(C)C)C2)cc1 (stereo partly drawn)
[1]
  inhibition: 99.8%
[2]
  IC50: 87 nM

## COc1ccc(OC)c(C(c2ccncc2)N2CC[C@@H](NC(=O)OC(C)(C)C)C2)c1O (stereo partly drawn)
[1]
  inhibition: 97.5%
[2]
  IC50: 212 nM

## CC(C)(C)OC(=O)N[C@@H]1CCN(C(c2cccc(-c3ccncc3)c2)c2cc3c(cc2O)OCO3)C1 (stereo partly drawn)
[1]
  inhibition: 95.6%
[2]
  IC50: 223 nM

## CC(C)(C)C(=O)N[C@@H]1CCN(C(c2ccncc2)c2cc3c(cc2O)OCO3)C1 (stereo partly drawn)
[1]
  inhibition: 98.7%
[2]
  IC50: 664 nM

## CC(C)(C)OC(=O)N[C@@H]1CCN(C(c2ccncc2)c2cc3c(cc2O)OC(C)(C)O3)C1 (stereo partly drawn)
[1]
  inhibition: 76%
[2]
  IC50: 609 nM

## CC(C)(C)OC(=O)N[C@@H]1CCN(C(c2ccc(-c3ccncc3)cn2)c2cc3c(cc2O)OCO3)C1 (stereo partly drawn)
[1]
  inhibition: 96.6%
[2]
  IC50: 126 nM

## O=C(NC1CC1)[C@@H]1CCN(C(c2ccncc2)c2cc3c(cc2O)OCO3)C1 (stereo partly drawn)
[1]
  inhibition: 98.3%
[2]
  IC50: 546 nM

## CC(C)(C)OC(=O)N[C@@H]1CCN(C(c2cc3c(cc2O)OCO3)c2ccc(Cl)cc2F)C1 (stereo partly drawn)
[1]
  inhibition: 99.3%
[2]
  IC50: 111 nM

## CC(C)(C)OC(=O)N[C@@H]1CCN(C(c2ccc(-c3ccccc3)cc2)c2cc3c(cc2O)OCO3)C1 (stereo partly drawn)
[1]
  inhibition: 10.6%

## COc1ccccc1C(=O)N[C@@H]1CCN(C(c2ccncc2)c2cc3c(cc2O)OCO3)C1 (stereo partly drawn)
[1]
  inhibition: 99.1%
[2]
  IC50: 399 nM

## CC(C)(C)OC(=O)N[C@@H]1CCN(C(c2cc3c(cc2O)OCO3)c2ccc(F)cc2Cl)C1 (stereo partly drawn)
[1]
  inhibition: 98.5%
[2]
  IC50: 117 nM

## CC(C)(C)OC(=O)N[C@@H]1CCN(C(c2cncnc2)c2cc3c(cc2O)OCO3)C1 (stereo partly drawn)
[1]
  inhibition: 64.4%

## CC(C)(C)OC(=O)N[C@@H]1CCN(C(c2cc3c(cc2O)OCO3)c2ccc(C#N)cc2F)C1 (stereo partly drawn)
[1]
  inhibition: 99.4%
[2]
  IC50: 330 nM

## CCOc1ccc(C(=O)N[C@@H]2CCN(C(c3ccncc3)c3cc4c(cc3O)OCO4)C2)cc1 (stereo partly drawn)
[1]
  inhibition: 97.3%
[2]
  IC50: 170 nM

## CC(C)(C)OC(=O)N[C@@H]1CCN(C(c2ccc(-c3ccncc3)nc2)c2cc3c(cc2O)OCO3)C1 (stereo partly drawn)
[1]
  inhibition: 97.1%
[2]
  IC50: 165 nM

## CC(C)(C)OC(=O)N[C@@H]1CCN(C(c2cccc(C#N)c2)c2cc3c(cc2O)OCO3)C1 (stereo partly drawn)
[1]
  inhibition: 96.5%
[2]
  IC50: 482 nM

## CC(C)(C)OC(=O)N[C@@H]1CCN(C(c2ccc(-c3cccnc3)cc2)c2cc3c(cc2O)OCO3)C1 (stereo partly drawn)
[1]
  inhibition: 99.2%
[2]
  IC50: 220 nM

## CC(C)(C)OC(=O)N[C@@H]1CCN(C(c2ccc(C#N)c(F)c2)c2cc3c(cc2O)OCO3)C1 (stereo partly drawn)
[1]
  inhibition: 98.7%
[2]
  IC50: 382 nM

## O=C(O[C@@H]1CCN(C(c2ccncc2)c2cc3c(cc2O)OCO3)C1)C1CC1 (stereo partly drawn)
[1]
  inhibition: 98.2%
[2]
  IC50: 586 nM

## COc1ccc(C(c2ccncc2)N2CC[C@@H](NC(=O)OC(C)(C)C)C2)c(O)c1 (stereo partly drawn)
[1]
  inhibition: 44.3%

## CC(C)(C)OC(=O)N[C@@H]1CCN(C(c2ccc(C#N)cc2)c2cc3c(cc2O)OCO3)C1 (stereo partly drawn)
[1]
  inhibition: 99.4%
[2]
  IC50: 141 nM

## CC(C)C(=O)N[C@@H]1CCN(C(c2ccncc2)c2cc3c(cc2O)OCO3)C1 (stereo partly drawn)
[1]
  inhibition: 96.5%
[2]
  IC50: 220 nM

## CC(=O)N[C@@H]1CCN(C(c2ccncc2)c2cc3c(cc2O)OCO3)C1 (stereo partly drawn)
[1]
  inhibition: 77.5%
[2]
  IC50: 519 nM

## COc1cc(O)c(C(c2ccncc2)N2CC[C@@H](NC(=O)OC(C)(C)C)C2)cc1OC (stereo partly drawn)
[1]
  inhibition: 98.6%
[2]
  IC50: 632 nM

## CCOc1ccccc1C(=O)N[C@@H]1CCN(C(c2ccncc2)c2cc3c(cc2O)OCO3)C1 (stereo partly drawn)
[1]
  inhibition: 94.4%
[2]
  IC50: 342 nM

## O=S(=O)(N[C@@H]1CCN(C(c2ccncc2)c2cc3c(cc2O)OCO3)C1)C1CC1 (stereo partly drawn)
[1]
  inhibition: 99.3%
[2]
  IC50: 577 nM

## N[C@@H]1CCN(C(c2ccncc2)c2cc3c(cc2O)OCO3)C1 (stereo partly drawn)
[1]
  inhibition: 33.6%
[2]
  IC50: 1750 nM

## CC(C)(C)OC(=O)N[C@@H]1CCN(C(c2ccncc2)c2cc3c(cc2O)OCO3)C1 (stereo partly drawn)
[1]
  inhibition: 97.2%
[2]
  IC50: 135 nM

## CN(C)[C@@H]1CCN(C(c2ccncc2)c2cc3c(cc2O)OCO3)C1 (stereo partly drawn)
[1]
  inhibition: 95%
[2]
  IC50: 200 nM

## CC(C)(C)OC(=O)N[C@@H]1CCN(C(c2ccncc2)c2cc3c(cc2O)OCCO3)C1 (stereo partly drawn)
[1]
  inhibition: 2.78%

## CC(C)(C)OC(=O)N[C@@H]1CCN(C(c2cc3c(cc2O)OCO3)C2CCCCC2)C1 (stereo partly drawn)
[1]
  inhibition: -7.31%

## CC(C)(C)OC(=O)N[C@@H]1CCN(C(c2ccncc2)c2ccc(C(C)(C)C)cc2O)C1 (stereo partly drawn)
[1]
  inhibition: -8.59%
